Assay results reported in patent publication US11040056B2, “Benzimidazoles that enhance the activity of oligonucleotides” (The University of North Carolina at Chapel Hill, priority 2018, dated 2021).

How the values were obtained:
Type in all cases: cell-based
[1] = Alamar Blue cytotoxicity assay; settings: human, HeLa Luc705 cells; Alamar Blue cytotoxicity; read-out: TC50
Method: (§1) FIG. 1B-1E. Effects with SSOs. FIG. 1B Structure of UNC2383. FIG. 1C Compound 2383 enhances SSO effects. Cells were incubated in 24-well plates with 100 nM SSO623 or its mismatched control (MM) for 16 h in DMEM+10% FBS, rinsed and then treated with various concentrations of 2383 for 2 h. The cells were then rinsed and incubation continued for an additional 4 h in DMEM+10% FBS. Cells were rinsed twice in PBS and luciferase activity (RLU) and cell protein determined. The larger round symbol indicates the MM oligonucleotide. Means+/−SE. N=3. FIG. 1D Kinetics of 2383 action. Cells were preloaded with 100 nM SSO623 and then exposed to 2383 for various periods after which the compound was removed. The cells were further incubated and then luciferase and protein determined. The total time of incubation in each case was 6 h. FIG. 1E Cytotoxicity of 2383. HeLa Luc705 or NIH-3T3-MDR cells were exposed to 2383 as in (FIG. 1C) then incubated for 24 h in DMEM plus 10% FBS and tested using the Alamar Blue cytotoxicity assay. Means+/−SE. N=3.
(§2) FIG. 3. Effect and Cytotoxicity of Analogs. The effect of selected UNC2383 analogs on luciferase induction by SSO623 was measured as described in Methods and in the legend of FIG. 1B-1E. Cytotoxicity was measured using the Alamar Blue method as in FIG. 1E. MM10 is the effect of 10 uM compound in the presence of a mismatched oligonucleotide. Means and SE. N=3.
(§3) SSO-mediated luciferase induction assays were conducted as previously described. (18) In short, HeLaLuc705 cells in 24 well culture plates were preincubated with SSO623 followed by brief treatment with the small molecule; at intervals thereafter, luciferase activity and protein content were determined. ASO mediated inhibition of MDR1 gene expression utilized an Alexa 488 labeled anti-P-glycoprotein antibody and flow cytometry to measure Pgp expression as described. (20) The anti-MDR1 sequence is 5′-CCATCccgacctcgcGCTCC-3′(SEQ ID NO: 5) (all phosphorothiopate with 2-O-Me residues in capitals). Cytotoxicity of 2383 was monitored using the Alamar Blue assay. (30)

HeLa Luc705 cells = assay: Alamar Blue cytotoxicity assay
Method: as §1, §2, §3

[2] = test system: EGFP654 mouse tracheal epithelial cells (MTEC); assay: Splicing correction (EGFP expression) in EGFP654 mouse tracheal epithelial cells; settings: 1 uM SSO PS623 basolateral overnight, 3 uM OEC apical 2 hr
Method: FIG. 13. EGFP654 Mouse tracheal cells. Well-differentiated tracheal epithelial cells derived from the EGFP654 mouse were treated basolaterally with 1 uM SSO PS623 (overnight) and apically with 3 uM OEC2383 (2 hr) or vehicle. Confocal microscopy images (xy, xz planes), bar=20 um.
FIG. 15B: P-PMO+OEC mediated splicing correction in EGFP654 MTEC. Well-differentiated cultures of primary tracheal cells (MTEC) derived from the EGFP654 mouse were treated with only one dose of P-PMO“654” (0.5 uM, overnight) followed by vehicle (−) or OEC2383 or OEC7938 (+), (10 uM, 2 hs). Both the SSO and OEC were added in cell medium either into the basolateral (BL, 400 ul) or the apical (AP, 30 ul) sides. MTEC were imaged in face at low mag. with a 10× lens in a fluorescence microscope, after 48 hs and 65 days post-treatment. All wells had the same total cell numbers. Vehicle controls<10 cells/well; n=3, bar=70 um. 1) Basolateral delivery of one treatment of P-PMO and OEC corrected>70% MTEC/well at 48 hs post-treatment. EGFP expression was still evident in large groups of cells after 65 days.
Methods: SSO623 (1 uM) was incubated basolaterally overnight in well-differentiated primary tracheal epithelial cells (MTEC) derived from the EGFP654 mouse (Wang et al, 2017); OEC2383 was administered apically or basolaterally (1-4 uM for 2-3 hs). […]

## O=C(Nc1nc2ccccc2n1CCN1CCCC1)c1cc2cc(Cl)ccc2o1 [UNC2383]
[1]
  CC50 at 2 h: 15 µM
HeLa Luc705 cells
  window between effective and toxic concentrations compared to UNC10217938: narrower
HeLa Luc705 cells; 2 h exposure, then 24 h, FIG. 1E
  concentrations showing little toxicity: ≤ 10 µM
HeLa Luc705 cells; ratio of cytotoxicity TC50 to luciferase induction EC50
  TC50/EC50: 7.5
[2]
  EGFP expression / enhancing activity in MTEC: notably expressed
